Legend:
[1] = system: brain cortex (rich in M1); assay: accumulation of IPX in dissipated rat brain cortex; type: cell-based; conditions: in words
Procedure: Effects of compounds 6A and 7A were then measured ex vivo in dissipated rat tissues (FIG. 5). Accumulation of IPX was measured in dissipated brain cortex (rich in M1 & M3), submaxillary gland (M1 & M3), and ventral tegmental area (M5). Native tissues express about 10-times less muscarinic receptors than CHO cell lines. Accumulation of cAMP was measured in cerebellum (M2) and striatum (M4).
Rat dissipated tissues: Suspension of dissipated tissues from rat brain cortex, cerebellum, striatum, ventral tegmental area (VTA) and submaxillary glands was prepared as described previously in supplementary methods. Adult 8-weeks old male Wistar rats were scarified by cervical dislocation in accordance with current legislative and guidelines under permission of Czech Ministry of Agriculture 16OZ23113/2017-17214. Tissues were dissected immediately. Submaxillary glands were minced by scissors. Tissues were dispersed by incubation for 15 min at 37° C. in KHB supplemented with trypsin and trituration every 5 min. Large undissipated parts were removed by cell mesh. […]
Measurements of the production of cAMP and inositol phosphates: Levels of second messengers cAMP and inositol phosphates were determined in radiochemical chromatography assays as described previously. […] Samples were applied to alumina columns (1.5 g of alumina per column), washed with 2 ml ammonium acetate (pH=7.0) and eluted from columns with 4 ml ammonium acetate and measured by liquid scintillation spectrometry. […] After separation of water and organic phases, 0.6 ml of water phase was applied to Dowex columns (1.5 g of Dowex per column), washed by 20 ml of 60 mM ammonium formate/5 mM sodium borate buffer and eluted from columns with 4 ml of 1M ammonium formate/0.1 formic acid buffer and measured by liquid scintillation spectrometry.
To exclude the possibility that the observed effects of compounds 6A and 7A are the result of overexpression in the heterologous system, functional response to the compounds was measured ex vivo in dissipated native rat tissues. […] Accumulation of cAMP was measured in M2-rich cerebellum and M4-rich striatum.

M2 muscarinic receptor = molecular target: T1, M2 muscarinic receptor (Homo sapiens, UniProt P08172); assay: accumulation of IPX, M2 CHO cells (M2Gq); type: cell-based; set-up: host or cells: CHO cells, stably transfected; conditions: for RAi / E′MAX / τ / Δlog(τ/KA): M2Gq (↑IPX); for RAi: Table 8, relative to carbachol; for E′MAX / τ: Table 8; for Δlog(τ/KA): Table 8, to carbachol
T1 sequence (P08172 1-466): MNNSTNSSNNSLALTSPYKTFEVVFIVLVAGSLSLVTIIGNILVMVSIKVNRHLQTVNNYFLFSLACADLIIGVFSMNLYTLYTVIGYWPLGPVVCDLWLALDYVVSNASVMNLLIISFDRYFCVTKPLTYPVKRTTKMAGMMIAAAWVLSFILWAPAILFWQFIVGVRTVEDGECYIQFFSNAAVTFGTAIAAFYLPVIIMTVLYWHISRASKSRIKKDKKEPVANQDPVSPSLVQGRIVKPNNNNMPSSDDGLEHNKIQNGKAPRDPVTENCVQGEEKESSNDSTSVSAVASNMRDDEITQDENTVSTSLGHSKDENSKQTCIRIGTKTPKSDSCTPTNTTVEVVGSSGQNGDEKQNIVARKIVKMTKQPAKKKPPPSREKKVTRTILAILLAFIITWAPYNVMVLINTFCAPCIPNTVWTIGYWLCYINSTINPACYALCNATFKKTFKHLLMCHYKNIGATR
Procedure: To determine level of cAMP, cells in suspension were pre-incubated for 1 h with 0.4 μM [^3H]adenine, washed, and incubated for 10 min in the presence of isobutylmethylxanthine and 10 μM forskolin. […] Incubation was ended by addition of 0.2 ml of 2.5 M HCl to the samples. Samples were applied to alumina columns (1.5 g of alumina per column), washed with 2 ml ammonium acetate (pH=7.0) and eluted from columns with 4 ml ammonium acetate and measured by liquid scintillation spectrometry. […] The incubation was stopped by addition of 0.5 ml of chloroform methanol HCl mixture (2:1:0.1). After separation of water and organic phases, 0.6 ml of water phase was applied to Dowex columns (1.5 g of Dowex per column), washed by 20 ml of 60 mM ammonium formate/5 mM sodium borate buffer and eluted from columns with 4 ml of 1M ammonium formate/0.1 formic acid buffer and measured by liquid scintillation spectrometry.
Measurements of the production of cAMP and inositol phosphates: Levels of second messengers cAMP and inositol phosphates were determined in radiochemical chromatography assays as described previously. To determine level of cAMP, cells in suspension were pre-incubated for 1 h with 0.4 μM [^3H]adenine, washed, and incubated for 10 min in the presence of isobutylmethylxanthine and 10 μM forskolin. […] Incubation was ended by addition of 0.2 ml of 2.5 M HCl to the samples. Samples were applied to alumina columns (1.5 g of alumina per column), washed with 2 ml ammonium acetate (pH=7.0) and eluted from columns with 4 ml ammonium acetate and measured by liquid scintillation spectrometry. […] For this purpose, new CHO cell lines stably expressing promiscuous G15 G-protein and M2 or M4 receptor were generated by transfection with pCMV/hygro vector and hygromycin selection. To determine the rate of formation of inositol phosphates IPX, suspended cells were pre-incubated with 0.1 μM [^3H]myo-inositol for 60 min, washed, and incubated with 10 mM LiCl for 15 min. […] The incubation was stopped by addition of 0.5 ml of chloroform methanol HCl mixture (2:1:0.1). After separation of water and organic phases, 0.6 ml of water phase was applied to Dowex columns (1.5 g of Dowex per column), washed by 20 ml of 60 mM ammonium formate/5 mM sodium borate buffer and eluted from columns with 4 ml of 1M ammonium formate/0.1 formic acid buffer and measured by liquid scintillation spectrometry.
For bi-phasic response, curves were inhibitory and stimulatory phase were fitted separately. Operational Model of Functional Agonism
[formula] where y is functional response at concentration of tested compound x, EMAX is maximal response of the system, KA is equilibrium dissociation constant and nH is slope factor. Eq. 5 was fitted to data from functional experiments. Eq. 5 was fitted to data by the two-step procedure described earlier. […] In the second step, Eq. 5 with EMAX fixed to the value determined in the first step was fitted to individual experimental data sets. Relative Intrinsic Activity

| SMILES | accumulation of IPX [1] | RAi (M2 muscarinic receptor) | EC50 (M2 muscarinic receptor) [nM] | Kd (M2 muscarinic receptor) [nM] | E′MAX (M2 muscarinic receptor) [fold over basal] | τ (M2 muscarinic receptor) | Δlog(τ/KA) (M2 muscarinic receptor) |
| --- | --- | --- | --- | --- | --- | --- | --- |
| C[N+]1(Cc2cccs2)CC=CCC1.[I-] (centres unmarked) [Compound 7A, 1-methyl-1-[(thiophen-2-yl)methyl]-1,2,3,6-tetrahydropyridin-1-ium iodide] | negligible increase in IPX | 0 |  |  |  |  |  |
| O=C1CCCN1CC#CCN1CCCC1 [oxotremorine, reference compound] |  | 3.08 ± 0.28 | 209 | 251 | 1.60 ± 0.05 | 0.2 ± 0.1 | −0.49 ± 0.05 |
| C[N+](C)(C)CCOC(N)=O [carbachol, reference compound] | profound accumulation of IPX |  |  |  | 1.91 ± 0.07 | 0.2 ± 0.1 | 0 |
| C1=CCN(Cc2cccs2)CC1.Cl [Compound 6A, 1-[(thiophen-2-yl)methyl]-1,2,3,6-tetrahydropyridin-1-ium chloride] | negligible increase in IPX | 0 |  |  |  |  |  |

From US11591323B2, “Muscarinic agonists as non-steroidal and non-opioid analgesics and methods of use thereof” (Barry University, priority 2019, dated 2023)
